Experimental data published in patent publication US8304234B2, “Compositions and methods for delivery of genetic material” (The Trustees of the Universtiy of Pennsylvania, priority 1993, dated 2012).

How the values were obtained:
[1] = system: tumor cells transfected with DNA encoding neu; assay: Tumor challenge model, tumor cells transfected with DNA encoding neu
Text: In experiments designed to compare the immunogenic response elicited by genetic vaccination and protein vaccination, animal models were designed using tumor cells that specifically express a foreign target protein. Three immune competent mouse models have been developed which express foreign antigens. Three clonal tumor cell lines which are derived from the Balb/c mouse strain are used. […] Subclones have been selected which can display foreign antigens in an unrecognized form. […] Using these models, the immune response elicited by genetic vaccination against an antigen can be measured.
A DNA construct was designed to test the effectiveness of a genetic vaccine against human p185neu in mice. […] The animal model used was described above. Tumor cells were transfected with DNA encoding neu, confirmed to express the protein and implanted into the animal. Controls included untransfected tumor lines.
Controls included unvaccinated animals and animals administered the p185neu protein.

[2] = system: tumor cells transfected with DNA encoding GA733; assay: Tumor challenge model, tumor cells transfected with DNA encoding GA733
Text: Using these models, the immune response elicited by genetic vaccination against an antigen can be measured.
A DNA construct was designed to test the effectiveness of a genetic vaccine against human GA733 in mice. […] The animal model used was described above. Tumor cells were transfected with DNA encoding GA733, confirmed to express the protein and implanted into the animal. Controls included untransfected tumor lines.
Genetically immunized animals were vaccinated with plasmid pGA733-2, described in Example 14, following the method described above. Controls included unvaccinated animals and animals administered the GA733 protein.

Row | Molecule | effect on transfected tumors ([1]; neu-transfected tumors, vaccinated mice) | effect on mortality ([1]; vaccinated mice bearing tumors) | effect on transfected tumors ([2]; GA733-transfected tumors, vaccinated mice) | effect on mortality ([2]; vaccinated mice bearing tumors)
1 | p185 protein: p185neu protein administered to control animals | some reduction in tumor size | no effect on mortality | – | –
2 | GA733 protein: GA733 protein administered to control animals (protein, UniProt P16422 24-314, looked up) Epithelial cell adhesion …: QEECVCENYKLAVNCFVNNNRQCQCTSVGAQNTVICSKLAAKCLVMKAEMNGSKLGRRAKPEGALQNNDGLYDPDCDESGLFKAKQCNGTSMCWCVNTAGVRRTDKDTEITCSERVRTYWIIIELKHKAREKPYDSKSLRTALQKEITTRYQLDPKFITSILYENNVITIDLVQNSSQKTQNDVDIADVAYYFEKDVKGESLFHSKKMDLTVNGEQLDLDPGQTLIYYVDEKAPEFSMQGLKAGVIAVIVVVVIAVVAGIVVLVISRKKRMAKYEKAEIKEMGEMHRELNA | – | – | some reduction in tumor size | no effect on mortality
